8 compounds from US20230050965A1, “SSTR5 ANTAGONISTS” (Kallyope, Inc., priority 2019, published 2023) can be followed below.

One data set has as its target T1, human SSTR5 (Homo sapiens, UniProt P35346).
T1 construct: expressed in transfected cells
As to the kind of experiment: Inositol phosphate (IP1) accumulation assay, antagonist mode. The following applies: CHO-K1 cells stably co-expressing human SSTR5 with Gqi5; pre-incubation with antagonist, then SST28 agonist; IP1 HTRF readout. Type of data set: cell-based. The text has this: Inositol Phosphate Accumulation Assay
CHO-K1 cells stably co-expressing human SSTR5 with Gqi5 were developed using Jump-In technology from Thermo-Fisher. Gqi5 is the mouse G alpha q protein, that was modified to interact with Gi-coupled GPCRs as described previously (Coward, P.; Chan, S. D.; Wada, H. G.; Humphries, G. M.; Conklin, B. R. Chimeric G proteins Allow a High-Throughput Signaling Assay of Gi-Coupled Receptors. Anal Biochem. 1999, 270(2), 242-248).
Co-expression of Gqi5 with SSTR5 allowed monitoring of SSTR5 activity by following IP1 accumulation. The assay was performed in a 384-well plate format using the IP1 assay kit from Cis-Bio in an antagonist mode, i.e., pre-incubation with antagonist following by receptor activation by agonist at a concentration generating 90% of full activation. Frozen cells expressing human SSTR5 were thawed, washed, and then plated in DMEM supplemented with 10% FBS and non-essential amino acids. 40 μL of 2.5×10^5 cells/mL were plated on a Poly D-Lysine coated 384-well white plate. The cells were then incubated for 16 hr. at 37° C./5% CO2. After 16 hour the medium was removed, and 10 μL of stimulation buffer was added to the cells. Test compounds were dissolved in DMSO at concentrations 2000-fold that of the final assay concentrations. 7.5 nL compound solutions were transferred to the cell plates using a Labcyte Echo® acoustic liquid handler. The plates were then incubated for 15 minutes at 37° C./5% CO2. After the first incubation, 5 μL of 30 nM SST28 were added to the cells, and the cells were incubated for 90 minutes at 37° C./5% CO2. 5 μL of detection buffer (prepared as described in the IP-1 kit) was added to each well, and the plates were incubated at RT for 1 hour.
TR-FRET was measured using a ClarioSTAR plate reader, calculating the ratio between emissions at 665 nm and 620 nm (HTRF ratio). The HTRF ratio for positive (Max) and negative (Min) controls were used to normalize HTRF data and generate values for % inhibition. IC50 and maximal inhibition values were determined using a standard 4-parameter fit.

The nature of data set [1]: Oral bioavailability after oral dosing in rat. The following applies: in vivo, Sprague Dawley rats, IV 1 mg/kg, PO 5 mg/kg, read-out: F % (oral bioavailability). How it is done: Example A-2: Oral Bioavailability of the Compounds after Oral Dosing in Rat
Oral bioavailability of the compounds was determined in Sprague Dawley rats. The table below summarizes the results. Each compound was dosed intravenously (IV) at 1 mg/kg and orally (PO) 5 mg/kg using the respective vehicles listed below. The compounds display low (<10%) oral bioavailability (F %).

T1 sequence (P35346 whole entry): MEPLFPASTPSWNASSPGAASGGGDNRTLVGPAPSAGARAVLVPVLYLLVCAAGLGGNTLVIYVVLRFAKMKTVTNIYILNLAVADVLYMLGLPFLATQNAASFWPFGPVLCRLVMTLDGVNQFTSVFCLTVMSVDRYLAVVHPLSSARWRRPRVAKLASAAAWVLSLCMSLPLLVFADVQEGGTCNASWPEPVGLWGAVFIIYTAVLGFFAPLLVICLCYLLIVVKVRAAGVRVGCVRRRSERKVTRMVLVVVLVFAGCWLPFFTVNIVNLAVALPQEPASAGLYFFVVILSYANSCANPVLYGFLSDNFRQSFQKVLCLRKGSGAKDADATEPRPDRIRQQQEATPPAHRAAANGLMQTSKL

Usually IC50 stands for the concentration that inhibits the measured activity by half. High values mean lower potency, low ones higher potency. As usually defined, the bioavailability is dose-corrected exposure relative to a reference, in per cent. In turn, `CCOc1cc(-c2ccc(F)cc2)c(C2CC2)cc1CN1CCC2(CC1)CN(c1ccc(P(=O)(O)O)cc1)C(=O)O2` [Compound 1, (4-(8-((2-cyclopropyl-5-ethoxy-4′-fluoro-[1,1′-biphenyl]-4-yl)methyl)-2-oxo-1-oxa-3,8-diazaspiro[4.5]decan-3-yl)phenyl)phosphonic acid] had an IC50 on human SSTR5 of at most 100 nM. The bioavailability in data set [1] was 0.9%.
On the same counts, the results for `CCOc1cc(-c2ccc(F)cc2)c(C2CC2)cc1CN1CCC2(CC1)CN(c1ccc(P(C)(=O)O)cc1)C(=O)O2` [Compound 2, (4-(8-((2-cyclopropyl-5-ethoxy-4′-fluoro-[1,1′-biphenyl]-4-yl)methyl)-2-oxo-1-oxa-3,8-diazaspiro[4.5]decan-3-yl)phenyl)(methyl)phosphinic acid] are at most 100 nM and 8.7%.
Taken in the same sequence, the figures for `CCOc1cc(-c2ccc(F)cc2)c(C2CC2)cc1CN1CCC2(CC1)CN(c1ccc([PH](=O)O)cc1)C(=O)O2` [Compound 3, (4-(8-((2-cyclopropyl-5-ethoxy-4′-fluoro-[1,1′-biphenyl]-4-yl)methyl)-2-oxo-1-oxa-3,8-diazaspiro[4.5]decan-3-yl)phenyl)phosphinic acid] were at most 100 nM and 1.9%.
As to `CCOc1cc(-c2ccc(F)cn2)c(C2CC2)cc1CN1CCC2(CC1)CN(c1ccc(P(=O)(O)O)cc1)C(=O)O2` [Compound 9, (4-(8-(5-cyclopropyl-2-ethoxy-4-(5-fluoropyridin-2-yl)benzyl)-2-oxo-1-oxa-3,8-diazaspiro[4.5]decan-3-yl)phenyl)phosphonic acid], the IC50 at human SSTR5 was at most 100 nM. Further, the bioavailability in data set [1] was 0.2%.
Turning to `CCOc1cc(-c2ccc(F)cc2)c(C2CC2)cc1CN1CCN(S(=O)(=O)Cc2ccc(P(=O)(O)OCC)cc2)CC1` [Compound 39, ethyl hydrogen (4-(((4-((2-cyclopropyl-5-ethoxy-4′-fluoro-[1,1′-biphenyl]-4-yl)methyl)piperazin-1-yl)sulfonyl)methyl)phenyl)phosphonate], on human SSTR5, the IC50 was at most 100 nM.
Compound `CCOc1cc(-c2ccc(F)cc2)c(C2CC2)cc1CN1CCN(C(=O)Cc2ccc(P(=O)(O)OCC)cc2)CC1` [Compound 40, ethyl hydrogen (4-(2-(4-((2-cyclopropyl-5-ethoxy-4′-fluoro-[1,1′-biphenyl]-4-yl)methyl)piperazin-1-yl)-2-oxoethyl)phenyl)phosphonate] showed a 50% inhibitory concentration (IC50) at human SSTR5 of at most 100 nM.
`CCOc1cc(-c2ccc(F)cc2)c(C2CC2)cc1CN1CCN(C(=O)Cc2ccc(P(=O)(O)O)cc2)CC1` [Compound 41, (4-(2-(4-((2-cyclopropyl-5-ethoxy-4′-fluoro-[1,1′-biphenyl]-4-yl)methyl)piperazin-1-yl)-2-oxoethyl)phenyl)phosphonic acid] showed an IC50 on human SSTR5 of at most 100 nM.
Same read-out and setting: with `CCOc1cc(C(=O)OC)c(C2CC2)cc1CN1CCN(C(=O)Oc2ccc(CNC[C@H](O)[C@@H](O)[C@H](O)[C@H](O)CO)cc2)CC1` [Compound 42, 4-((((2S,3R,4R,5R)-2,3,4,5,6-pentahydroxyhexyl)amino)methyl)phenyl 4-(5-cyclopropyl-2-ethoxy-4-(methoxycarbonyl)benzyl)piperazine-1-carboxylate] the figure was above 5000 nM.
